Measurements taken from paper PMC7845594, “Novel Immune Modulators Enhance Caenorhabditis elegans Resistance to Multiple Pathogens” (mSphere, 2021).

Experiments:
[1] = tested on: C. elegans host defense pathway genes; assay: nanoString expression of 115 immune- and stress-responsive genes; details: 100 μM LK molecules, 16 h
Outline: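 Wild-type young adult C. elegans (2,000 per condition) exposed to 100 μM LK molecules or DMSO control in S Basal medium for 16 h. RNA purified and expression of 115 immune- and stress-responsive genes quantified by nanoString; two biological replicates per condition.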

[2] = tested on: C. elegans exposed to P. aeruginosa strain PA14; assay: P. aeruginosa slow-killing assay (agar); format: in vivo, Caenorhabditis elegans; details: 50 µM

`COC(=O)/C=C/C(=O)Nc1ccccc1` [LK32] was tested. Which “B0024.4 expression, induction” value [1] did it give?
The value was 2.44 fold.

What about the “C02B4.2 nhr-17 expression, induction” value [1] of the same compound?
Its value is 5.68 fold.

What about the “C06B3.7 expression, induction” value [1] of the same compound?
The value was 4.23 fold.

And the “C07G3.2 irg-1 expression, induction” value [1]?
Its value is 2.20 fold.

And the “C12C8.1 hsp-70 expression, induction” value [1]?
Its value is 3.77 fold.

What about the “C15F1.7 sod-1 expression, induction” value [1] of the same compound?
The value was 4.46 fold.

And the “C29F7.2 expression, induction” value [1]?
The value was 2.80 fold.

And the “C31A11.5 oac-6 expression, induction” value [1]?
The value was 4.01 fold.

And the “C32D5.12 expression, induction” value [1]?
The value was 3.70 fold.

And the “C32H11.1 expression, induction” value [1]?
The value was 1.40 fold.

And the “C32H11.3 expression, induction” value [1]?
Its value is 2.32 fold.

What about the “C34G6.4 pgp-2 expression, induction” value [1] of the same compound?
Its value is 1.90 fold.

And the “C37C3.10 expression, induction” value [1]?
Its value is 4.08 fold.

What about the “C37H5.8 hsp-6 expression, induction” value [1] of the same compound?
The value was 3.96 fold.

What about the “C49G7.5 irg-2 expression, induction” value [1] of the same compound?
The value was 4.83 fold.

And the “F08F8.5 numr-1 expression, induction” value [1]?
The value was 8.48 fold.

And the “F08H9.4 expression, induction” value [1]?
The value was 1.80 fold.

And the “F14F9.3 expression, induction” value [1]?
The value was 4.80 fold.

What about the “F22B5.4 expression, induction” value [1] of the same compound?
Its value is 3.08 fold.

What about the “F22H10.2 expression, induction” value [1] of the same compound?
Its value is 3.76 fold.

And the “F26A3.4 expression, induction” value [1]?
The value was 4.23 fold.

And the “F35E8.11 cdr-1 expression, induction” value [1]?
The value was 3.13 fold.

What about the “F35G2.4 phy-2 expression, induction” value [1] of the same compound?
Its value is 4.53 fold.

And the “F37B12.2 gcs-1 expression, induction” value [1]?
Its value is 7.02 fold.

And the “F43E2.8 hsp-4 expression, induction” value [1]?
The value was 2.75 fold.

And the “F44E5.5 expression, induction” value [1]?
The value was 3.34 fold.

And the “F49F1.6 expression, induction” value [1]?
Its value is 2.28 fold.

And the “F49F1.7 expression, induction” value [1]?
The value was 2.35 fold.

And the “F49H6.13 expression, induction” value [1]?
Its value is 6.69 fold.

And the “F54B8.4 expression, induction” value [1]?
The value was 2.74 fold.

What about the “F55G11.2 expression, induction” value [1] of the same compound?
The value was 3.21 fold.

And the “F59A7.1 clec-206 expression, induction” value [1]?
Its value is 3.26 fold.

What about the “F59B10.4 expression, induction” value [1] of the same compound?
The value was 3.51 fold.

What about the “H12D21.1 nspa-1 expression, induction” value [1] of the same compound?
Its value is 52.37 fold.

What about the “H23N18.1 ugt-13 expression, induction” value [1] of the same compound?
The value was 8.50 fold.

And the “H23N18.3 ugt-8 expression, induction” value [1]?
The value was 18.61 fold.

And the “K05B2.4 expression, induction” value [1]?
Its value is 1.82 fold.

What about the “K08F4.7 gst-4 expression, induction” value [1] of the same compound?
Its value is 18.20 fold.

What about the “K09A9.1 nipi-3 expression, induction” value [1] of the same compound?
The value was 4.75 fold.

What about the “K10D11.2 expression, induction” value [1] of the same compound?
Its value is 2.89 fold.

And the “K10G4.3 expression, induction” value [1]?
Its value is 2.75 fold.

What about the “R03D7.6 gst-5 expression, induction” value [1] of the same compound?
Its value is 46.52 fold.

And the “R08H2.1 dhs-23 expression, induction” value [1]?
The value was 2.72 fold.

What about the “R10E8.3 expression, induction” value [1] of the same compound?
Its value is 7.07 fold.

What about the “T19D12.3 expression, induction” value [1] of the same compound?
Its value is 9.28 fold.

And the “T19H12.1 ugt-9 expression, induction” value [1]?
Its value is 14.98 fold.

And the “T21E8.1 pgp-6 expression, induction” value [1]?
Its value is 2.05 fold.

And the “T22B7.3 expression, induction” value [1]?
Its value is 6.13 fold.

And the “T24C4.4 expression, induction” value [1]?
Its value is 3.75 fold.

And the “T24E12.5 expression, induction” value [1]?
Its value is 2.28 fold.

And the “T27E4.3 hsp-16.48 expression, induction” value [1]?
The value was 5.22 fold.

What about the “T27E4.8 hsp-16.1 expression, induction” value [1] of the same compound?
The value was 4.29 fold.

And the “T27F6.8 expression, induction” value [1]?
The value was 5.12 fold.

And the “T28C12.4 expression, induction” value [1]?
The value was 9.85 fold.

And the “W02D9.10 expression, induction” value [1]?
Its value is 4.35 fold.

What about the “Y22D7AL.5 hsp-60 expression, induction” value [1] of the same compound?
The value was 4.03 fold.

What about the “Y38E10A.15 nspe-7 expression, induction” value [1] of the same compound?
The value was 2.18 fold.

What about the “Y46H3A.2 hsp-16.41 expression, induction” value [1] of the same compound?
The value was 4.09 fold.

And the “Y46H3A.3 hsp-16.2 expression, induction” value [1]?
Its value is 4.04 fold.

What about the “Y56A3A.33 expression, induction” value [1] of the same compound?
Its value is 4.81 fold.

And the “Y58A7A.5 expression, induction” value [1]?
Its value is 8.58 fold.

And the “ZC376.7 atfs-1 expression, induction” value [1]?
The value was 5.61 fold.

And the “ZC443.6 ugt-16 expression, induction” value [1]?
Its value is 3.20 fold.

And the “ZK697.6 gst-21 expression, induction” value [1]?
Its value is 2.57 fold.

What about the “TD50, slow killing” value ([2]; atf-7 RNAi, Fig 9) of the same compound?
Its value is 46.2 h.

What about the “TD50, slow killing” value ([2]; pmk-1 RNAi, Fig 9) of the same compound?
Its value is 45.6 h.

What about the “Rescue in slow killing on disruption of the PMK-1 MAPK pathway” value ([2]; pmk-1 or atf-7 RNAi) of the same compound?
The value was “retained at least partial ability to rescue”.

What about the “TD50, slow killing” value ([2]; vector RNAi, Fig 9 panels A-B, C, E) of the same compound?
The value was 59.1 h.

And the “Survival in slow-killing assay vs DMSO” value ([2]; wild-type young adult worms)?
Its value is “improved survival”.
